Where “and” joins values, the source holds several entries; their conditions need not be identical. Identical values can stand only once.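 A five-concentration, 48-hour dose response in 96-well plates underlies each endpoint, interpolated linearly between surrounding concentrations. GI50 is the concentration that inhibits growth by half. TGI: total growth inhibition.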
Legend:
Experiment in all cases: growth of human tumour cells (NCI), 48 h
[1] = test system: TK-10 renal
[2] = test system: MALME-3M melanoma
[3] = test system: SK-MEL-2 melanoma
[4] = test system: UO-31 renal
[5] = test system: HOP-62 NSCLC
[6] = test system: OVCAR-8 ovarian
[7] = test system: A498 renal
[8] = test system: IGROV1 ovarian
[9] = test system: HOP-92 NSCLC
[10] = test system: UACC-62 melanoma
[11] = test system: A549 NSCLC
[12] = test system: HT29 colon
[13] = test system: KM12 colon
[14] = test system: RPMI-8226 leukemia

Structure (SMILES)	TGI [1] [µM]	GI50 [2] [µM]	TGI [2]	GI50 [3] [µM]	TGI [3]	GI50 [4] [µM]	TGI [4]	TGI [5] [µM]	TGI [6] [µM]	TGI [7] [µM]	TGI [8] [µM]	TGI [9] [µM]	TGI [10] [µM]	TGI [11]	TGI [12]	TGI [13] [µM]	TGI [14] [µM]
CCN(CC)CCNc1c2ccccc2nc2cccc([N+](=O)[O-])c12	0.0813	0.013	0.0231 µM and 0.0287 µM	0.0102	0.0185 µM and 0.023 µM	0.0712	0.0412 µM and 0.252 µM	0.0164	0.0382	0.014	0.0267	0.0261	0.0208	0.018 µM and 0.0391 µM	0.0408 µM and 0.0455 µM		
Clc1ccc(Nc2ncco2)cc1Cl	> 10		> 10 µM				> 10 µM	> 10	> 10	> 10	> 10	> 10	> 10	> 10 µM	> 10 µM	> 10	
O=[N+]([O-])c1cc(Br)cc2cc(Cl)cnc12	> 100		> 100 µM				> 100 µM	> 100	> 100	> 100	24.2	6.36	> 100	> 100 µM	> 100 µM	> 100	> 100
COc1ccc(-c2nc(-c3ccc(OC)cc3)n(-c3ccccc3)n2)cc1	> 100				> 100 µM		> 100 µM	> 100	> 100	> 100	> 100	> 100	> 100	> 100 µM	> 100 µM	> 100	
NC(Cc1ccc(O)cn1)C(=O)NC(C(=O)O)c1ccccc1 (stereo not drawn)	> 100		> 100 µM				> 100 µM	> 100	> 100	> 100	> 100	> 100		> 100 µM	> 100 µM	> 100	> 100
CC(=O)Nc1ccc(NC(=O)CC(=O)Nc2ccc(NC(C)=O)cc2)cc1	> 100		> 100 µM				> 100 µM		> 100	> 100	> 100	> 100	23.4	> 100 µM	> 100 µM	> 100	> 100
C/C=C1\CC(C(=O)OCC)CCCCCCC1=O (stereo not drawn)	> 100		> 100 µM		> 100 µM		> 100 µM	> 100	> 100	> 100	> 100		> 100	> 100 µM	> 100 µM	> 100	
Cc1sc2c(c1C)C(=O)c1cccn1-2	> 100		> 100 µM		> 100 µM		> 100 µM	> 100	> 100	> 100	> 100		> 100	> 100 µM	> 100 µM	> 100	> 100
CC(NC(=O)Cc1ccc(OP(=O)(OCc2ccc([N+](=O)[O-])o2)N(C)CCCCCl)cc1)c1ccc(OCC2CCCCC2)c(C(N)=O)c1 (stereo not drawn)	15.6		4.42 µM		5.89 µM		8.45 µM	6.07	16	7.39	4.76		3.28	4.68 µM	3.18 µM	5.91	2.44
C[N+]1=C(c2cccnc2/C=N/O)OCC1(C)C	> 100		> 100 µM		> 100 µM		> 100 µM	> 100	> 100	> 100	> 100	> 100	> 100	> 100 µM	> 100 µM	> 100	
CCOC(=O)c1c(N2CCCC2)[nH]c(=O)c(C(c2c(O)c(C(=O)OCC)c(N3CCCC3)[nH]c2=O)C(C)C)c1O	> 100		> 100 µM				> 100 µM	> 100	> 100	> 100		> 100	> 100	> 100 µM	> 100 µM	> 100	> 100
CC(=O)C(N1CCCCC1)C(O)(C(F)(F)F)C(F)(F)F (stereo not drawn)	> 100		> 100 µM				> 100 µM		> 100	> 100	> 100	> 100	> 100	> 100 µM	> 100 µM	> 100	> 100
[N-]=[N+]=CC(=O)C1(C(=O)C=[N+]=[N-])CC1	> 100		> 100 µM		> 100 µM		> 100 µM	> 100	> 100	> 100	> 100			> 100 µM	> 100 µM	> 100	
Cc1ccc(Nc2c3c(c(C#N)c4nc5ccccc5n24)CCCC3)cc1	> 100		77.9 µM		31.7 µM		65.6 µM		> 100		> 100	76.2	71.2	> 100 µM	37.2 µM	> 100	
Cc1cc(C)cc(Nc2nnc3n2S(=O)(=O)c2cc(C)c(Cl)cc2S3)c1	38.5		13.7 µM		15.8 µM		> 100 µM	41.6	> 100	29.6	80.6		34.9	45.1 µM	> 100 µM	33.2	42
CCOC(=O)/C=C/n1c2ccccc2c(=O)c2cc(OC)ccc21	> 100		> 100 µM		> 100 µM		> 100 µM	> 100	> 100	> 100	> 100	> 100	> 100	> 100 µM	> 100 µM	> 100	
CCCCn1c(-c2ccccc2)cs/c1=N\N=C1C=C(C(C)(C)C)C(=O)C(C(C)(C)C)=C1	> 100		> 100 µM		> 100 µM		> 100 µM	> 100	> 100	> 100	> 100		> 100	> 100 µM	> 100 µM		
CC1CC(=O)Nc2ccc(Cl)cc2N1C(=O)CN1CCC(CCCCN(C)C)CC1 (stereo not drawn)	> 100		> 100 µM				> 100 µM	> 100	> 100	> 100	> 100	> 100	> 100	> 100 µM	> 100 µM		> 100
N#C/C(=C\c1ccc(O)c(O)c1)c1c(C#N)c(N)nn1-c1ccccc1	> 100		26.8 µM		49.8 µM		62 µM	40.8	29.2	9.63	14.5	> 100	> 100	39.3 µM	65.8 µM	> 100	
CC(=O)c1ccc(N2C(=O)C3c4[nH]c5ccccc5c4C4CCC(C(C)(C)C)CC4C3C2=O)cc1 (stereo not drawn)			34.4 µM				> 100 µM	38.5	54.7	71.3	> 100	47.1	59.3	50.9 µM	32.6 µM		54
COc1c(C)c(C/C=C(\C)CC/C=C(\C)CC/C=C(\C)CCC=C(C)C)c(OC)c(OC)c1OC	> 100				> 100 µM		> 100 µM	> 100	> 100		> 100	> 100	> 100	> 100 µM	> 100 µM	> 100	
CC(=O)O[C@@H]1[C@H](OC2CCCCC2(c2ccccc2)c2ccccc2)O[N+]([O-])=CC12CCCCC2 (stereo partly drawn)	30.4						31.3 µM		59.2	29.9	41.4	59.2	32.6	31.6 µM	36.2 µM	31.2	> 100
COC(=O)C(C(=O)C(=O)Nc1ccc(C)cc1)c1nc2ccc([N+](=O)[O-])cc2[nH]c1=O (stereo not drawn)	> 100		> 100 µM		> 100 µM		> 100 µM	> 100	> 100	> 100	> 100		> 100	> 100 µM	> 100 µM	> 100	
O=Cc1c2c(cc3c1CC1(C3)Cc3cc4c(c(C=O)c3C1)CCCC4)CCCC2	> 31.6		> 31.6 µM					> 31.6	> 31.6		> 31.6	> 31.6	> 31.6	> 31.6 µM	> 31.6 µM	> 31.6	30.3
O=C1c2ccccc2N=C(c2cc3c(cc2Cl)Sc2nccn2S3(=O)=O)OS(=O)(=O)N1c1ccccc1	> 100		> 100 µM				91.3 µM	76.2	44.5	> 100		> 100	50.1	> 100 µM	61 µM	> 100	46.4
CN(C)CCCNC(=O)N/N=C/c1ccc(O)cc1	> 100		> 100 µM		> 100 µM		> 100 µM	> 100	> 100	> 100	> 100		> 100	> 100 µM	> 100 µM	> 100	
O=C(Nc1cccc(C(F)(F)F)c1)C(=O)C(C(=O)c1ccc(Cl)c(Cl)c1)C1OC(=O)c2ccccc21 (stereo not drawn)	> 100		76.9 µM				> 100 µM	> 100	> 100	79.8	> 100	> 100	88.3	> 100 µM	> 100 µM	> 100	> 100
